Measurements as given in article PMC12210252 (2025).

Tests used:
[1] = test system: AptT4 (SH-5′-AptT4) (DNA, aptamer) CGCCGTTGGTGTTCGGTCAGGCTTCCGTGGCAACGGGGCAAAATGGTAATCGCGGGGAACC; test: SnS2 field-effect transistor, Langmuir isotherm fit; details: 137 mM NaCl, 2.7 mM KCl, 0.5 mM MgCl2; 1× PBS (10 mM Na2HPO4, 2 mM KH2PO4), pH 7.4; aptamer immobilised with PEG
[2] = test system: AptT4 (SH-5′-AptT4) (DNA, aptamer) CGCCGTTGGTGTTCGGTCAGGCTTCCGTGGCAACGGGGCAAAATGGTAATCGCGGGGAACC; test: SnS2 field-effect transistor, selectivity test; details: 137 mM NaCl, 2.7 mM KCl, 0.5 mM MgCl2; 1× PBS, pH 7.4; tested at 10 nM against 1 pM T4; low response

N[C@@H](Cc1cc(I)c(Oc2cc(I)c(O)c(I)c2)c(I)c1)C(=O)O
K d [1]: 0.0144 ± 0.0008 nM

N[C@@H](Cc1cc(I)c(Oc2ccc(O)c(I)c2)c(I)c1)C(=O)O
binding [2]: no

CC(C)(c1ccc(O)cc1)c1ccc(O)cc1
binding [2]: no
